The assay concerns the target JAK3 enzyme (Homo sapiens (Human), UniProt P52333). The experiment in a line: JAK Caliper Enzyme Assay at 4 μM or 1 mM ATP. It counts as biochemical.
Where [1] appears, read: read-out: JAK3 (4 μM ATP) IC50, 4 μM ATP.
The mark [2] stands for this setting: read-out: JAK3 (1 mM ATP) IC50, 1 mM ATP.

Like-named read-outs stand apart in the source and are kept apart here.

JAK3 enzyme, sequence (P52333 whole entry, species assumed): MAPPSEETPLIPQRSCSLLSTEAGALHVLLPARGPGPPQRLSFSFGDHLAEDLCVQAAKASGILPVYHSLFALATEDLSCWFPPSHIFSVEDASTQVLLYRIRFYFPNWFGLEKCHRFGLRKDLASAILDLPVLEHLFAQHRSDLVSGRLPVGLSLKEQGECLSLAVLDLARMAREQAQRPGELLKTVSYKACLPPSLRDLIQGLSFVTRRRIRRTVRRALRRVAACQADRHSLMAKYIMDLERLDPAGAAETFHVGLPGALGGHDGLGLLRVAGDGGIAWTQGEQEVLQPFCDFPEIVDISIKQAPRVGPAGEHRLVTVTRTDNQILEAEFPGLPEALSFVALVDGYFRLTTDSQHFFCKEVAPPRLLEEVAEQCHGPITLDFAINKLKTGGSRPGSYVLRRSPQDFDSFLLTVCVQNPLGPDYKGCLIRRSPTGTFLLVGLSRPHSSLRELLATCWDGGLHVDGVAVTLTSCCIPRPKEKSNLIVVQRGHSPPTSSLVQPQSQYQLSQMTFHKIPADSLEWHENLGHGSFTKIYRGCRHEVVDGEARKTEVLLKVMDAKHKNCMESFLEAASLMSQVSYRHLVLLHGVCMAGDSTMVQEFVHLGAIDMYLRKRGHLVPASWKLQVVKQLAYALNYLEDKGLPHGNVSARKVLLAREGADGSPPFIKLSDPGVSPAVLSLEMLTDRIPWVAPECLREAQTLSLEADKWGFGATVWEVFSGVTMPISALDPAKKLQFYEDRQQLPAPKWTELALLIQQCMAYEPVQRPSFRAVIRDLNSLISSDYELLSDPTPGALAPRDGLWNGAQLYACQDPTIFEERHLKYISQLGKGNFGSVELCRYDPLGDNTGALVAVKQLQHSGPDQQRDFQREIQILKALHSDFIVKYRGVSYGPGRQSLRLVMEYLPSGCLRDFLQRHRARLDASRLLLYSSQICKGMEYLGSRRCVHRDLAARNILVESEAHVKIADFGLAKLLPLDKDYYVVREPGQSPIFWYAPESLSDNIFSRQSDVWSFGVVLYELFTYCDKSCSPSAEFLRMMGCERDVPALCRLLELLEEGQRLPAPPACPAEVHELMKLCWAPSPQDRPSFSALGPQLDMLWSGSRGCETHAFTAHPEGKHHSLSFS

For `C=CC(=O)N1CC[C@@H]2CN(c3ncnc4[nH]ccc34)[C@@H]2C1` [Example 131, 1-[(1S,6R)-8-(7H-Pyrrolo[2,3-d]pyrimidin-4-yl)-3,8-diazabicyclo[4.2.0]oct-3-yl]prop-2-en-1-one], under setting [1], the concentration for half-maximal inhibition (IC50) was found to be 988 nM.
Same read-out and setting: to `C/C=C/C(=O)N1CCC[C@@H](N2CC(C)c3c[nH]c4ncnc2c34)C1` (mixture of isomers) [Example 154, (2E)-1-[(3R)-3-(3-methyl-3,4-dihydro-1,5,6,8-tetraazaacenaphthylen-5 (1H)-yl)piper-idin-1-yl]but-2-en-1-one] belongs 4940 nM.
As to `C=CC(=O)N1CCC[C@@H](Nc2ncnc3[nH]cc(-c4ccc(C(=O)N(C)C)cc4)c23)C1` [Example 27, 4-(4-{[(3R)-1-acryloylpiperidin-3-yl]amino}-7H-pyrrolo[2,3-d]pyrimidin-5-yl)-N,N-dimethylbenzamide], the IC50 runs as follows: under setting [1], 2.8 nM; under setting [2], 294 nM.
As for `C=CC(=O)N1CC2(C1)CN(c1cnc3[nH]cc(C(=O)NC(C)C)c3n1)C2C` (stereo not drawn) [Example 322, 2-(6-acryloyl-1-methyl-2,6-diazaspiro[3.3]hept-2-yl)-N-(propan-2-yl)-5H-pyrrolo[2,3-b]pyrazine-7-carboxamide], the IC50 was 29.4 nM under setting [1] and 3440 nM under setting [2].
For the compound `C=CC(=O)N1CCN(c2cnc3[nH]cc(C(=O)NC(C)C)c3n2)[C@@H](C)C1` [Example 297, 2-[(2S)-4-acryloyl-2-methylpiperazin-1-yl]-N-(propan-2-yl)-5H-pyrrolo[2,3-b]pyrazine-7-carboxamide], the IC50 amounted to 1.5 nM under setting [1] and 181 nM under setting [2].
As for `C=CC(=O)N1CC[C@H](Nc2cnc3[nH]cc(C(=O)NC(C)C)c3n2)[C@H](OC)C1` [Example 317, 2-{[(3R,4S)-1-acryloyl-3-methoxypiperidin-4-yl]amino}-N-(propan-2-yl)-5H-pyrrolo[2,3-b]pyrazine-7-carboxamide], the IC50 reads like this: under setting [1], 0.5 nM; under setting [2], 44.6 nM.
The like results for `C=CC(=O)NC1CN(c2cnc3[nH]cc(C(=O)NC(C)C)c3n2)C1` [Example 173, 2-[3-(acryloylamino)azetidin-1-yl]-N-(propan-2-yl)-5H-pyrrolo[2,3-b]pyrazine-7-carboxamide] were, in that order, 8.1 nM and 692 nM.
Take `C=CC(=O)N1CCN(c2cnc3[nH]cc(C(=O)NC(C)C)c3n2)[C@@H](C(C)C)C1` [Example 323, 2-[(2S)-4-acryloyl-2-(propan-2-yl)piperazin-1-yl]-N-(propan-2-yl)-5H-pyrrolo[2,3-b]pyrazine-7-carboxamide]: the IC50 reads like this: under setting [1], 11.9 nM; under setting [2], 886 nM.
The like results for `C=CC(=O)N1CCC(Nc2cnc3[nH]cc(C(=O)NC4CCCCC4(F)F)c3n2)CC1` (stereo not drawn) [Example 256, 2-[(1-acryloylpiperidin-4-yl)amino]-N-(2,2-difluorocyclohexyl)-5H-pyrrolo[2,3-b]pyrazine-7-carboxamide] were, in that order, 0.2 nM and 7.9 nM.
Take `C=CC(=O)N1CCN(c2cnc3[nH]cc(C(=O)NC(C)C)c3n2)[C@@H](C2CC2)C1` [Example 314, 2-[(2S)-4-acryloyl-2-cyclopropylpiperazin-1-yl]-N-(propan-2-yl)-5H-pyrrolo[2,3-b]pyrazine-7-carboxamide]: the concentration for half-maximal inhibition (IC50) reads like this: under setting [1], 5 nM; under setting [2], 662 nM.
The like results for `C=CC(=O)N1CCN(c2cnc3[nH]cc(C(=O)NC(C)C)c3n2)[C@@H](CC)C1` [Example 325, 2-[(2S)-4-acryloyl-2-ethylpiperazin-1-yl]-N-(propan-2-yl)-5H-pyrrolo[2,3-b]pyrazine-7-carboxamide] were, in that order, 5 nM and 480 nM.
Taken in the same sequence, the figures for `C=CC(=O)N1CCC(Nc2cnc3[nH]ccc3n2)CC1` [Example 176, 1-[4-(5H-pyrrolo[2,3-b]pyrazin-2-ylamino)piperidin-1-yl]prop-2-en-1-one] were 7.2 nM and 910 nM.
The like results for `C=CC(=O)N(C)C1CN(c2cnc3[nH]cc(C(=O)NC(C)C)c3n2)C1` [Example 187, 2-{3-[acryloyl(methyl)amino]azetidin-1-yl}-N-(propan-2-yl)-5H-pyrrolo[2,3-b]pyrazine-7-carboxamide] were, in that order, 0.6 nM and 27.2 nM.
In the case of `C=CC(=O)N1CCC[C@@H](Nc2ncnc3[nH]cc(CCO)c23)C1` [Example 55, (R)-1-(3-((5-(2-Hydroxyethyl)-7H-pyrrolo[2,3-d]pyrimidin-4-yl)amino)piperidin-1-yl)prop-2-en-1-one], the IC50 reads like this: under setting [1], 2 nM; under setting [2], 203 nM.
Taken in the same sequence, the figures for `C=CC(=O)N1CC[C@@H]2CN(c3cnc4[nH]cc(C(=O)NC(C)C)c4n3)C[C@@H]21` [Example 170, 2-[(3aR,6aR)-1-acryloylhexahydropyrrolo[3,4-b]pyrrol-5(1H)-yl]-N-(propan-2-yl)-5H-pyrrolo[2,3-b]pyrazine-7-carboxamide] were 3.3 nM and 392 nM.
The like results for `C=CC(=O)N1CCC(Nc2cnc3[nH]cc(C(=O)NC4CC(F)(F)C4)c3n2)CC1` [Example 245, 2-[(1-acryloylpiperidin-4-yl)amino]-N-(3,3-difluorocyclobutyl)-5H-pyrrolo[2,3-b]pyrazine-7-carboxamide] were, in that order, 0.2 nM and 17.9 nM.
Take `C=CC(=O)N1CCC(Nc2cnc3[nH]cc(C(=O)N[C@H](C)CCC)c3n2)CC1` [Example 274, 2-[(1-acryloylpiperidin-4-yl)amino]-N-[(2R)-pentan-2-yl]-5H-pyrrolo[2,3-b]pyrazine-7-carboxamide]: the IC50 was found to be 0.2 nM under setting [1] and 8.2 nM under setting [2].
Taken in the same sequence, the figures for `C=CC(=O)N1CC[C@@H](Nc2cnc3[nH]cc(C(=O)NC(C)C)c3n2)[C@H](F)C1` [Example 291, 2-{[(3R,4R)-1-acryloyl-3-fluoropiperidin-4-yl]amino}-N-(propan-2-yl)-5H-pyrrolo[2,3-b]pyrazine-7-carboxamide] were 0.2 nM and 9.2 nM.
Consider `C/C=C/C(=O)N1CCC[C@@H](Nc2ncnc3[nH]cc(C(=O)NCCO)c23)C1` [Example 148, 4-({(3R)-1-[(2E)-but-2-enoyl]piperidin-3-yl}amino)-N-(2-hydroxyethyl)-7H-pyrrolo[2,3-d]pyrimidine-5-carboxamide], for which the IC50 under setting [1] was 6960 nM.
As for `C=CC(=O)N1CCC(Nc2cnc3[nH]cc(-c4ccc(S(C)(=O)=O)cc4)c3n2)CC1` [Example 203, 1-[4-({7-[4-(methylsulfonyl)phenyl]-5H-pyrrolo[2,3-b]pyrazin-2-yl}amino)piperidin-1-yl]prop-2-en-1-one], the 50% inhibitory concentration (IC50) reads like this: under setting [1], 2 nM; under setting [2], 148 nM.
Turning to `C=CC(=O)N1CCC(Nc2cnc3[nH]cc(C(=O)N4CCCC4)c3n2)CC1` [Example 287, 1-(4-{[7-(pyrrolidin-1-ylcarbonyl)-5H-pyrrolo[2,3-b]pyrazin-2-yl]amino}piperidin-1-yl)prop-2-en-1-one], the IC50 is, setting by setting: under setting [1], 4.2 nM; under setting [2], 346 nM.
As for `C=CC(=O)N1CCC(Nc2cnc3[nH]cc(C(=O)NC[C@H](C)CC(F)(F)F)c3n2)CC1` [Example 241, 2-[(1-acryloylpiperidin-4-yl)amino]-N-[(2R)-4,4,4-trifluoro-2-methylbutyl]-5H-pyrrolo[2,3-b]pyrazine-7-carboxamide], the IC50 amounted to 0.2 nM under setting [1] and 7.3 nM under setting [2].
Turning to `C=CC(=O)N1CCN(c2cnc3[nH]cc(C(=O)NC(C)C)c3n2)C2(CC2)C1` [Example 313, 2-(7-acryloyl-4,7-diazaspiro[2.5]oct-4-yl)-N-(propan-2-yl)-5H-pyrrolo[2,3-b]pyrazine-7-carboxamide], the IC50 was determined as 1.4 nM under setting [1] and 183 nM under setting [2].
Regarding `C=CC(=O)N1CCC(Oc2cnc3[nH]cc(-c4ccc(S(C)(=O)=O)cc4)c3n2)CC1` [Example 229, 1-[4-({7-[4-(methylsulfonyl)phenyl]-5H-pyrrolo[2,3-b]pyrazin-2-yl}oxy)piperidin-1-yl]prop-2-en-1-one], the half-maximal inhibitory concentration (IC50) was determined as 7.1 nM under setting [1] and 745 nM under setting [2].
Taken in the same sequence, the figures for `C=CC(=O)N1Cc2ncn(C)c2C(Nc2ncnc3[nH]ccc23)C1` (stereo not drawn) [Example 166, 1-[1-Methyl-7-(7H-pyrrolo[2,3-d]pyrimidin-4-ylamino)-1,4,6,7-tetrahydro-5H-imidazo[4,5-c]pyridin-5-yl]prop-2-en-1-one] were 370 nM and > 10000 nM.
Taken in the same sequence, the figures for `C=CC(=O)N1CCC[C@@H](Nc2ncnc3[nH]cc(C)c23)C1` [Example 43, 1-{(3R)-3-[(5-methyl-7H-pyrrolo[2,3-d]pyrimidin-4-yl)amino]piperidin-1-yl}prop-2-en-1-one] were 1.2 nM and 99.5 nM.
For the compound `CN(C)C/C=C/C(=O)N1CCC[C@H](Nc2ncnc3[nH]ccc23)C1` [Example 106, (2E)-4-(dimethylamino)-1-[(3S)-3-(7H-pyrrolo[2,3-d]pyrimidin-4-ylamino)piperidin-1-yl]but-2-en-1-one], the IC50 under setting [1] came out at 49.1 nM.
Same read-out and setting: to `C=CC(=O)N1CCC[C@@H](Nc2ncnc3[nH]cc(C(=O)NCCO)c23)C1` [Example 143, 4-{[(3R)-1-acryloylpiperidin-3-yl]amino}-N-(2-hydroxyethyl)-7H-pyrrolo[2,3-d]pyrimidine-5-carboxamide] belongs 144 nM.
Turning to `C=CC(=O)N1CCC(Nc2cnc3[nH]cc(C(=O)NC4CCCCC4)c3n2)CC1` [Example 278, 2-[(1-acryloylpiperidin-4-yl)amino]-N-cyclohexyl-5H-pyrrolo[2,3-b]pyrazine-7-carboxamide], the IC50 is, setting by setting: under setting [1], 0.2 nM; under setting [2], 6.3 nM.
The like results for `C=CC(=O)N1C[C@H](Nc2ncnc3[nH]cc(CCOC)c23)CC[C@@H]1C` [Example 13, 1-((2S,5R)-5-((5-(2-Methoxyethyl)-7H-pyrrolo[2,3-d]pyrimidin-4-yl)amino)-2-methylpiperidin-1-yl)prop-2-en-1-one] were, in that order, 0.4 nM and 60.6 nM.
Taken in the same sequence, the figures for `C=CC(=O)N1CCC(CNc2cnc3[nH]cc(C(=O)NC(C)C)c3n2)CC1` [Example 193, 2-{[(1-acryloylpiperidin-4-yl)methyl]amino}-N-(propan-2-yl)-5H-pyrrolo[2,3-b]pyrazine-7-carboxamide] were 29 nM and 2290 nM.

As usually defined, the IC50 is the concentration that gives 50% inhibition.

For the origin of these results see patent publication US20250134869A1, “Pyrrolo[2,3-d]pyrimidinyl, Pyrrolo[2,3-b]pyrazinyl and Pyrrolo[2,3-d]pyridinyl Acryla-mides” (Pfizer Inc, priority 2021, published 2025).
